Consider 2 molecules from USRE49351E1, “Cytoprotective agent” (Biogen MA Inc., priority 2009, dated 2023).

One experiment concerns plasmin/α2-antiplasmin. Kind of experiment: Plasmin activity by fibrinogen zymography of plasma, mouse cerebral infarction model. The class given is in vivo. As to conditions: 10 mg/kg 1 hour after ischemia, mean ± SE, n=6. How it is done: The quantity of plasmin/α2-antiplasmin in plasma was measured by a fibrinogen zymography method for evaluating the plasmin activity, when a triprenyl phenol compound was administered to a mouse cerebral infarction model. As triprenyl phenol compounds, SMTP-7, SMTP-6, SMTP-22, SMTP-25, SMTP-43, and SMTP-44D were used.
The triprenyl phenol compounds were prepared same as in Example 2 and Example 5. The administration of 10 mg/kg of a triprenyl phenol compound was initiated 1 hour after the initiation of ischemia. The administration method was same as Example 3. Six mice were used for each condition.
A blood sample was taken according to the following method at 3 time points, namely after the completion of the administration 0 hour (immediately after the completion), 1 hour, and 3 hours. Under anesthesia with 1 to 1.5% isoflurane, the […] and 90 μL of blood was withdrawn from the abdominal vena cava into a syringe containing 10 μL of sodium citrate (3.8%) (sodium citrate:blood=1:9, final concentration of sodium citrate 0.38%).
After collection the blood was centrifuged (5000 rpm, 15 min, 4° C.) to separate plasma. A part of the plasma was mixed with equal quantity of a sample buffer (125 mM Tris-HCl (pH 6.8), 4% (w/v) SDS, 0.04% (w/v) bromophenol blue, 20% (w/v) sucrose), which was then divided into small fractions, and cryopreserved.
A part of the plasma was reserved and diluted 300-fold with 0.1 N NaOH and the protein content was determined by the Bradford method in order to even out the protein mass to be applied to an electrophoresis gel.
As the standard sample, a sample was prepared by reacting 10 μL of 120 nM plasmin (by SIGMA) and 10 μL of 600 nM α2-antiplasmin (by Wako Pure Chemical Industries, Ltd.) at 37° C. for 30 min, and mixing the same with 20 μL of the sample buffer.
An electrophoresis gel was prepared by overlaying a stacking gel on a 7.5% running gel containing 2 mg/mL fibrinogen (by SIGMA). Based on the determined protein mass, 3 to 15 μL of the sample was applied, so that the equal amount of protein was applied.
After electrophoresis at 10 mA/sheet, for 3 hours the stacking gel was removed and rinsed for 30 min twice with about 100 mL/gel of a rinse liquid (2.5% Triton X-100). After rinsing, incubation was carried out at 37° C. for 24 to 60 hours under gentle shaking with about 100 mL/sheet of an incubation buffer (0.1 M glycine-50 mM Tris-HCl, pH 8.3 at 37° C.).
Thereafter the gel was stained by a stain solution (0.075% CBB 8250, 22.5% methanol, 2.25% sulfosalicylic acid dihydrate, 7.5% trichloroacetic acid) at room temperature for 15 to 30 min with gentle shaking. Removing the stain solution, the gel was decolored by a decoloring solution (methanol:acetic acid:water=1:1:6), which was replaced with water at an appropriate time point according to appearance of bands observed.
The image on the gel was read in by an imaging analyzer (Printgraph (AE-6933FXCF), by ATTO) and the band intensity was evaluated. The results are expressed as a ratio to the value of the control group at 0 hour after the completion of the administration (immediately after the completion).

Experiment [1] can be described thus: H-ORAC (hydrophilic oxygen radical absorbance capacity) assay. Type of experiment: biochemical. As to conditions: sodium salt aqueous solution, phosphate buffer pH 7.4. How it is done:
(§1) To study the free radical scavenging activity of a triprenyl phenol compound, the following H-ORAC (hydrophilic oxygen radical absorbance capacity) assay, and modified H-ORAC (mH-ORAC) assay were conducted.
(§2) SMTP compounds evaluated by H-ORAC were used respectively in a form of a sodium salt aqueous solution, and the compounds evaluated by mH-ORAC were used respectively in a form of an acetone solution.
(§3) In H-ORAC a test compound was diluted appropriately with a buffer solution (75 mM phosphate buffer solution, pH 7.4) and used for measurement. In mH-ORAC a test compound was diluted appropriately by a 50% (v/v) acetone solution, prepared by diluting an acetone solution with water, to prepare a solution of 40-fold the final concentration. […] As for the reference material Trolox, 500 μM/buffer solution was diluted appropriately with a buffer solution.
(§4) To a 96-well microplate (transparent, flat bottom, black wall) 50 μL of a test compound solution or a Trolox solution was placed, and additionally 100 μL of a fluorescein 140 nM/buffer solution as a fluorescent substance was added (final concentration 70 nM), followed by incubation at 37° C. for […].
(§5) As a free radical generator, 50 μL of a 48 mM/buffer solution of 2,2′-azobis(amidinopropane)dihydrochloride was added (final concentration 12 mM), and fluorescence intensity at fluorescence wavelength of 535 nm with excitation wavelength of 485 nm was measured at 2 min intervals for 90 min. The calibration curve was prepared between the Trolox final concentrations of 5 to 15 μM. The measurement was conducted by changing the concentration with n=3, and plotted on a diagram with time on the abscissa and the fluorescence intensity on the ordinate. Therewith evaluation was made using the value obtained by reducing the area under the curve for the blank from the area under the curve for the sample. The result was expressed as an equivalent to Trolox.

A short description of experiment [2]: modified H-ORAC (mH-ORAC) assay. As to conditions: acetone solution, acetone final concentration 1.25%. Type of experiment: biochemical. How it is done:
as §1, §2, §3, §4, §5

The mark [3] stands for this setting: plasma 0 hr after completion of administration.
Where [4] appears, read: plasma 1 hr after completion of administration.
The mark [5] stands for this setting: plasma 3 hr after completion of administration.

SMILES strings stand for the structures.

For `CC(C)=CCC/C(C)=C/CCC1(C)Oc2c(c(O)cc3c2CN(C(Cc2c[nH]c4ccccc24)C(=O)O)C3=O)CC1O` (stereo not drawn) [SMTP-6], the “plasmin activity (plasmin/α2-antiplasmin band intensity), ratio to control group at 0 hour” value was 1.08 ± 0.12 in the experiment with plasmin/α2-antiplasmin (setting [3]), 1.17 ± 0.14 in the experiment with plasmin/α2-antiplasmin (setting [4]) and 1.68 ± 0.10 in the experiment on plasmin/α2-antiplasmin (setting [5]). Further, in experiment [1], the “free radical scavenging activity, Trolox equivalent” value amounted to 3.73 ± 0.42 molTE/mol.

Turning to `CC(C)=CCC/C(C)=C/CC[C@@]1(C)Oc2c(c(O)cc3c2CN(CCC[C@@H](C(=O)O)N2Cc4c(cc(O)c5c4O[C@](C)(CC/C=C(\C)CCC=C(C)C)[C@@H](O)C5)C2=O)C3=O)C[C@@H]1O` [SMTP-7], the figures for the “free radical scavenging activity, Trolox equivalent” value in experiment [2] and in experiment [1] were 1.82 ± 0.27 molTE/mol and 2.08 ± 0.13 molTE/mol, respectively. In addition, the “plasmin activity (plasmin/α2-antiplasmin band intensity), ratio to control group at 0 hour” value is 1.49 ± 0.13 in the experiment with plasmin/α2-antiplasmin (setting [3]), 3.23 ± 0.47 with plasmin/α2-antiplasmin (setting [4]) and 3.27 ± 0.67 in the experiment on plasmin/α2-antiplasmin (setting [5]).
